The record followed here is ChEMBL document CHEMBL1201862, “PubChem BioAssay data set” (2004).

Common to all, as to assay: NCI tumour cell line growth inhibition, 48 h
Test [1] relates to BT-549.
The subject of test [2] is RXF 393.
The test system of test [3] is SNB-75.
Test [4] has as its system NCI-H460.
The subject of test [5] is OVCAR-3.
Test [6] relates to HCT-15.
The subject of test [7] is CCRF-CEM.
Test [8] relates to HCT-116.
In test [9] the test system is UACC-62.
Test [10] has as its system M14.
Test [11] deals with MDA-MB-435.
The test system of test [12] is NCI-H522.
In test [13] the test system is 786-0.
Test [14] relates to Hs-578T.
The test system of test [15] is SF-539.
Test [16] deals with U-251.
Test [17] concerns CAKI-1.
Test [18] deals with SK-OV-3.
Test [19] has as its system TK-10.

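Method: 48-hour compound exposure of cells in 96-well plates, five concentrations, linear interpolation of endpoints. Here, GI50 denotes the concentration required for 50% inhibition of growth.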 Active and inactive are the calls of the source. Rule as the data show it: active = GI50 up to about 1.1 µM and inactive = higher. Bounds are passed on as bounds.

As for `CC1CC[C@@]2(OC1)OC1C[C@H]3[C@@H]4CC=C5C[C@@H](OC6OC(CO)C(OC7OC(CO)C(O)C(O)C7O)C(O)C6OC6OC(C)C(O)C(O)C6O)CC[C@]5(C)[C@H]4CC[C@]3(C)C1[C@@H]2C` (stereo partly drawn), the GI50 was 0.463 µM (active) in [1]; 0.431 µM (active) in test [2]; 2.07 µM (inactive) in test [3]; 0.685 µM (active) in [4]; 0.643 µM (active) in test [5]; 3.52 µM in [6]. For the same compound, the GI50 in test [7] was 0.617 µM (active); in test [8] it was 0.838 µM (active); in test [9] it was 0.469 µM (active); in test [10], 0.479 µM (active); in [11] it was 0.558 µM (active); in test [12], 0.998 µM (active). In addition, the GI50 is 0.49 µM (active) in test [13]; 0.714 µM (active) in test [14]; 0.491 µM (active) in test [15]; 0.493 µM (active) in test [16]; 0.76 µM (active) in test [17]; 3.3 µM (inactive) in test [18]. Besides, the GI50 in test [19] is 1.04 µM (active).

Regarding `C=C(C)C1CC[C@@](C)(O)[C@H](C#N)C1` (stereo partly drawn), the GI50 is > 100 µM (inactive) in [1]; > 100 µM (inactive) in test [2]; 44.5 µM (inactive) in test [3]; > 100 µM (inactive) in test [4]; > 100 µM (inactive) in [5]; above 100 µM in test [6]. Also, the GI50 in [7], in [8], in [9], in test [10], in [11] and in test [12] was > 100 µM (inactive) throughout. Further, the GI50 in test [13], in test [14], in test [15], in test [16], in [17] and in test [18] was > 100 µM (inactive) each time. Moreover, the GI50 in test [19] was > 100 µM (inactive).

Turning to `Cc1[nH]n(C2=NCCN2)c(=O)c1C`, the GI50 in [1] was > 100 µM (inactive); in test [2], > 100 µM (inactive); in [3] it was 89.5 µM (inactive); in test [4], > 100 µM (inactive); in [5], > 100 µM (inactive); in test [6], above 100 µM. The GI50 in [7], in test [8], in [9], in test [10], in [11] and in [12] was > 100 µM (inactive) each time. Moreover, the GI50 in test [13], in [14], in [15], in test [16], in test [17] and in [18] was > 100 µM (inactive) throughout. The GI50 in [19] was > 100 µM (inactive).

Take `CCOC(=O)C1=CN(Cc2ccccc2)C2ON=C(c3ccc(Cl)cc3)C2C1` (stereo not drawn): the GI50 is 32.4 µM (inactive) in test [1]; 38.6 µM (inactive) in test [2]; 44.3 µM (inactive) in [3]; 40.5 µM (inactive) in test [4]; 39.3 µM (inactive) in [5]; above 32.4 µM in test [6]. The GI50 in [7] is 9.1 µM (inactive); in test [8], 19.9 µM (inactive); in test [9], 17.1 µM (inactive); in [10], > 54.7 µM (inactive); in test [11] it was 29 µM (inactive); in test [12], 10.4 µM (inactive). Further, the GI50 in test [13] is 54.7 µM (inactive); in [14] it was 11.6 µM (inactive); in test [15], > 55 µM (inactive); in test [16], 13.5 µM (inactive); in [17], > 52.6 µM (inactive); in test [18] it was > 63.7 µM (inactive). Further, the GI50 in test [19] is > 60.5 µM (inactive).

Turning to `CC[C@]12C=CCN3CC[C@@]4(c5cc(Br)c(OC)cc5N(C)[C@H]4[C@@](O)(C(=O)NN)[C@@H]1O)[C@@H]32`, the GI50 in test [1] is 36.1 µM (inactive); in test [2], 22.5 µM (inactive); in test [3], 18.2 µM (inactive); in test [4] it was > 100 µM (inactive); in test [5] it was 58.9 µM (inactive); in test [6] it was above 100 µM. In addition, the GI50 in test [7] was 38 µM (inactive); in test [8], > 100 µM (inactive); in test [9], 40.7 µM (inactive); in [10], 55.5 µM (inactive); in [11] it was 93.5 µM (inactive); in test [12], 52.2 µM (inactive). The GI50 in [13] was 57.5 µM (inactive); in test [14] it was 76.4 µM (inactive); in test [15], 30.5 µM (inactive); in test [16] it was 52 µM (inactive); in [17], > 100 µM (inactive); in [18], 75.7 µM (inactive). For the same compound, the GI50 in test [19] is 59.4 µM (inactive).

In the case of `O=[N+]([O-])c1ccc2[nH]ncc2c1Cl`, the GI50 in [1] is 38.5 µM (inactive); in [2], 42.8 µM (inactive); in test [3], 35.9 µM (inactive); in test [4], 33.1 µM (inactive); in [5], 33.8 µM (inactive); in [6], 23.3 µM. The GI50 in test [7] was 46 µM (inactive); in test [8], 24 µM (inactive); in [9], 34.2 µM (inactive); in test [11] it was 36.1 µM (inactive); in test [12], 3.74 µM (inactive); in test [13], 36.3 µM (inactive). For the same compound, the GI50 in [14] is 21.4 µM (inactive); in test [15], 36.7 µM (inactive); in test [16], 42.5 µM (inactive); in [17], > 10 µM (inactive); in test [18], 53.5 µM (inactive); in [19] it was 83.6 µM (inactive).

Consider `CCOC(=O)/C=C(/C(=O)OCC)n1cc(C)c(=O)n(/C(=C/C(=O)OCC)C(=O)OCC)c1=O`, for which the GI50 in [1] was 5.79 µM (inactive); in test [2], 1.8 µM (inactive); in test [3], 9.73 µM (inactive); in test [4], 16.1 µM (inactive); in [5], 2.79 µM (inactive); in test [6], 1.56 µM. Besides, the GI50 in test [7] was 0.354 µM (active); in test [8], 1.91 µM (inactive); in [9] it was 5.97 µM (inactive); in test [10], 2.31 µM (inactive); in [11], 2.5 µM (inactive); in test [12], 0.49 µM (active). For the same compound, the GI50 is 1.28 µM (inactive) in test [13]; 6.4 µM (inactive) in [14]; 8.85 µM (inactive) in test [15]; 6.93 µM (inactive) in test [16]; 0.887 µM (active) in [17]; 17.5 µM (inactive) in [18]. Moreover, the GI50 in [19] is 2.08 µM (inactive).

Regarding `NS(=O)(=O)c1ccc(NC(=O)c2ccc3nc4ccccc4c(Nc4ccc(S(N)(=O)=O)cc4)c3c2)cc1`, the GI50 was > 100 µM (inactive) in test [1]; > 100 µM (inactive) in [2]; > 100 µM (inactive) in test [3]; 8.75 µM (inactive) in test [4]; > 100 µM (inactive) in test [5]; above 100 µM in test [6]. Also, the GI50 in test [7], in test [8], in test [9], in [10], in test [11] and in test [12] was > 100 µM (inactive) in each case. In addition, the GI50 was > 100 µM (inactive) in test [13]; > 100 µM (inactive) in test [14]; > 100 µM (inactive) in test [15]; 62.8 µM (inactive) in test [16]; > 100 µM (inactive) in test [17]; > 100 µM (inactive) in [18]. Also, the GI50 in test [19] is > 100 µM (inactive).

As to `CC1(C)COCN1COC1CCCCC1`, the GI50 in test [1] is > 100 µM (inactive); in [2], > 100 µM (inactive); in test [3], 5.08 µM (inactive); in [4], > 100 µM (inactive); in test [5], > 100 µM (inactive); in test [6], above 100 µM. Besides, the GI50 was 4.91 µM (inactive) in test [7]; > 100 µM (inactive) in [8]; > 100 µM (inactive) in [9]; > 100 µM (inactive) in test [10]; > 100 µM (inactive) in test [11]; > 100 µM (inactive) in test [12]. Besides, the GI50 in [13], in [14], in test [15], in test [16], in test [17] and in test [18] was > 100 µM (inactive) each time. In test [19], the GI50 is > 100 µM (inactive).

Regarding `S=C(N/N=C(/c1ccccc1)c1ccccn1)N(Cc1ccccn1)Cc1ccccn1`, the GI50 in test [1] is 0.207 µM (active); in test [2], 1 µM (active); in [3] it was 0.708 µM (active); in [4] it was 0.116 µM (active); in test [5] it was 0.183 µM (active); in [6] it was 0.102 µM. Moreover, the GI50 in test [7] is < 0.01 µM (active); in [8], < 0.01 µM (active); in [9], 0.338 µM (active); in [10], 0.0323 µM (active); in test [11], 0.841 µM (active); in test [12] it was < 0.0247 µM (active). Further, the GI50 in test [13] is 0.475 µM (active); in test [14], 1.41 µM (inactive); in test [15], 0.119 µM (active); in test [16], < 0.016 µM (active); in test [17] it was 0.0822 µM (active); in test [18] it was 0.472 µM (active). Further, the GI50 in test [19] is 0.236 µM (active).

In the case of `Cc1ccc(S(=O)(=O)Nc2nc3ccccc3c(=O)n2C2CCCCC2)cc1`, the GI50 in [1] is 28.1 µM (inactive); in [2], 68.2 µM (inactive); in test [3], 53.1 µM (inactive); in test [4], 97.1 µM (inactive); in test [5] it was 76.7 µM (inactive); in test [6] it was above 100 µM. The GI50 was > 100 µM (inactive) in [7]; > 100 µM (inactive) in test [8]; 77.4 µM (inactive) in test [9]; > 100 µM (inactive) in test [10]; > 100 µM (inactive) in [11]; 41.7 µM (inactive) in test [12]. Moreover, the GI50 was > 100 µM (inactive) in test [13]; 62.5 µM (inactive) in test [14]; > 100 µM (inactive) in test [15]; 90.2 µM (inactive) in test [16]; 81.3 µM (inactive) in test [17]; > 100 µM (inactive) in test [18]. Besides, the GI50 in test [19] is > 100 µM (inactive).
